Experimental data published in patent EP0065295A1, “Tryptamine derivatives of thienyloxypropanol amines, process for their preparation, pharmaceutical compositions containing them and preparation of the latter” (HOECHST AKTIENGESELLSCHAFT, priority 1981, dated 1982).

Columns and labels:
[1] = Acute toxicity, LD50 rat i.v.; conditions: in vivo, iv, read-out: Akute Toxizität LD50 Ratte i.v.
Description: (§1) Die antihypertensive Wirksamkeit der erfindungsgemäßen Verbindungen kann in verschiedenen pharmakolgischen Tests nachgewiesen werden.

narkotisierten Hund = test: Blood pressure lowering in the anaesthetised dog; assay type: in vivo; conditions: narkotisierter Hund; compared with Bucindolol
Description: as §1

wachen Hund = test: Blood pressure lowering in the conscious dog; assay type: in vivo; conditions: wacher Hund; compared with Bucindolol
Description: as §1

[2] = Acute toxicity, LD50 mouse i.v.; conditions: in vivo, iv, read-out: Akute Toxizität LD50 Maus i.v.
Description: as §1

| SMILES | LD50 [1] [mg/kg] | blutdrucksenkend (narkotisierten Hund) | blutdrucksenkend (wachen Hund) | LD50 [2] [mg/kg] | LD50 ([1]; Ratte, i.v.) [mg/kg] | LD50 ([2]; Maus, i.v.) [mg/kg] |
| --- | --- | --- | --- | --- | --- | --- |
| CC(C)(Cc1c[nH]c2ccccc12)NCC(O)COc1ccsc1C(N)=O (racemic) [Beispiel 2, 3-<3-[1,1-Dimethyl-2-(indol-3-yl)äthylamino]-2-hydroxy-- propoxy>-thiophen-2-carbonsäureamid] | 86 | ähnlich stark und anhaltend blutdrucksenkend wie das bekannte Bucindolol | ähnlich stark und anhaltend blutdrucksenkend wie das bekannte Bucindolol | 74 | – | – |
| CC(C)(Cc1c[nH]c2ccccc12)NCC(O)COc1ccccc1C#N (stereo not drawn) [Bucindolol, 2-<2-Hydroxy-3-<[2-(3-indolyl)-1,1-dimethyläthyl] amino>-propoxy>benzonitril, reference compound] | – | – | – | – | 20.2 | 9.6 |
